Patent US20240279278A1, “NMU RECEPTOR 2 AGONISTS” (Boehringer Ingelheim International GmbH, priority 2023, published 2024)
Starred links: 1 amine or outer side, 2 acyl side, 3 side chain; linkers in the order of their positions; H or OH if unused. Non-standard residues stand in square brackets, D forms with d. Residues, ends and D or L forms follow the SMILES beside them. *: point of attachment. Pipz(1-CH2CO,4-CH2CH2NH) = O=C(CN1CCN(CCN[*:1])CC1)[*:2]; C18 diacid = O=C(O)CCCCCCCCCCCCCCCCC(=O)*; γGlu = O=C(O)[C@H](CCC(=O)[*:2])N[*:1]; 2Pal = N[C@@H](Cc1ccccn1)C(=O)O; 4Pal = N[C@@H](Cc1ccncc1)C(=O)O; NMeL = CN[C@@H](CC(C)C)C(=O)O; NMeA = CN[C@@H](C)C(=O)O; Nle = CCCC[C@H](N)C(=O)O; Sar = CNCC(=O)O

What was measured:
Format in all cases: cell-based
human NMUR1 receptor = molecular target: T1, human NMUR1 receptor (Homo sapiens, UniProt Q9HB89); assay: IP1 Gq HTRF assay, activation of human NMUR1 in buffer; conditions: CHO-K1 cells expressing human NMUR1, stimulation buffer with 0.1% BSA; read-out: EC50 (hNMUR1) buffer
T1 construct: expressed in transfected cells; host or cells: CHO-K1
T1 sequence (Q9HB89 1-426): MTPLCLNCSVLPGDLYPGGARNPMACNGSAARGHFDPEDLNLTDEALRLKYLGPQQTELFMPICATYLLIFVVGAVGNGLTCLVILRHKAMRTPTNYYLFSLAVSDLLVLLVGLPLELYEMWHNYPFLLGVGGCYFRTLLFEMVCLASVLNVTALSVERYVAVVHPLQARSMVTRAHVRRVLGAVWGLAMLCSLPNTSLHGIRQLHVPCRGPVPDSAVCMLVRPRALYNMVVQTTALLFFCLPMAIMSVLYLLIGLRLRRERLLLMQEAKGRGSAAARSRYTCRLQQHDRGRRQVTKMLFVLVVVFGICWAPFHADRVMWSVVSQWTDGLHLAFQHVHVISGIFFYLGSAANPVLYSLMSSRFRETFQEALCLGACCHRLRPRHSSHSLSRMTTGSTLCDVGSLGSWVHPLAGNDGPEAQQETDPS
In short: (§1)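 CHO-K1 cells stably expressing human NMUR1 or NMUR2, seeded 24 h before assay, stimulated with peptide agonists (8-point dose-response, 1% DMSO final) in HEPES/HBSS buffer with 50 mM LiCl and 0.1% BSA, pH 7.4, 1 h at 37 °C. IP1 accumulation read by HTRF competition (665/620 nm); EC50 from 4-parameter sigmoidal fit.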

human NMUR2 receptor [1] = molecular target: T2, human NMUR2 receptor (Homo sapiens, UniProt Q9GZQ4); assay: IP1 Gq HTRF assay, activation of human NMUR2 in buffer; parameters: expressed in transfected cells; host or cells: CHO-K1; conditions: CHO-K1 cells expressing human NMUR2, stimulation buffer with 0.1% BSA; read-out: EC50 (hNMUR2) buffer
In short: as §1

human NMUR2 receptor [2] = molecular target: T2, human NMUR2 receptor; assay: IP1 Gq HTRF assay, activation of human NMUR2 in human plasma; parameters: expressed in transfected cells; host or cells: CHO-K1; conditions: CHO-K1 cells expressing human NMUR2, 100% human plasma; read-out: EC50 (hNMUR2) human plasma
In short: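 CHO-K1 cells stably expressing human NMUR2 exposed to peptide agonists (8-point dose-response) in 100% human plasma with 50 mM LiCl, 1% DMSO, for 1 h at 37° C. IP1 accumulation read by HTRF competition (665/620 nm ratio). EC50 from 4-parameter sigmoidal fit.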

T2 sequence (Q9GZQ4 whole entry): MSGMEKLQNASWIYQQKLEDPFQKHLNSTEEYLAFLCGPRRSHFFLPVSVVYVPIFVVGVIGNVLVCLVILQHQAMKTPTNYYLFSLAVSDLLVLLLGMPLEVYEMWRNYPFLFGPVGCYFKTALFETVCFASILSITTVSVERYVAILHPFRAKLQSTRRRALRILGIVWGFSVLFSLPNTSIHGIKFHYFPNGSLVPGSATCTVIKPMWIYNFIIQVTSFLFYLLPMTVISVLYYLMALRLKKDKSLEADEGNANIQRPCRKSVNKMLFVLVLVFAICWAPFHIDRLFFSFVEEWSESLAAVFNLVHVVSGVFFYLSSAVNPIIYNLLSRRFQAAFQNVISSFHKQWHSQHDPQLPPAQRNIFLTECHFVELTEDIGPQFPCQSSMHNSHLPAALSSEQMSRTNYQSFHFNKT

Row | Structure (SMILES) | EC50 (human NMUR1 receptor) | EC50 (human NMUR2 receptor [1]) | EC50 (human NMUR2 receptor [2])
1 | CCCC[C@H](NC(=O)[C@H](CC(C)C)N(C)C(=O)[C@H](Cc1ccccc1)NC(=O)[C@H](Cc1ccc(O)cc1)NC(=O)CN1CCN(CCNC(=O)CN(C)C(=O)CN(C)C(=O)CN(C)C(=O)CN(C)C(=O)CN(C)C(=O)CN(C)C(=O)CN(C)C(=O)CN(C)C(=O)CN(C)C(=O)CN(C)C(=O)CN(C)C(=O)CN(C)C(=O)CN(C)C(=O)CN(C)C(=O)CN(C)C(=O)CC[C@H](NC(=O)CC[C@H](NC(=O)CC[C@H](NC(=O)CCCCCCCCCCCCCCCCC(=O)O)C(=O)O)C(=O)O)C(=O)O)CC1)C(=O)N[C@@H](Cc1ccncc1)C(=O)N(C)[C@@H](C)C(=O)N[C@@H](CCCNC(=N)N)C(=O)NCC(N)=O [Compound 58, C18DA-gGlu3-Sar15-AEPipAc-Tyr-Phe-NMeLeu-Nle-4Pal-NMeAla-Arg-Gly-NH2] ({C18 diacid-γGlu-γGlu-γGlu}-[Sar][Sar][Sar][Sar][Sar][Sar][Sar][Sar][Sar][Sar][Sar][Sar][Sar][Sar][Sar][Pipz(1-CH2CO,4-CH2CH2NH)]YF[NMeL][Nle][4Pal][NMeA]RG-NH2) | > 1000 nM | 140 nM | 709 nM
2 | CCCC[C@H](NC(=O)[C@H](CC(C)C)N(C)C(=O)[C@H](Cc1ccccc1)NC(=O)[C@H](Cc1ccc(O)cc1)NC(=O)CN1CCN(CCNC(=O)CN(C)C(=O)CN(C)C(=O)CN(C)C(=O)CN(C)C(=O)CN(C)C(=O)CN(C)C(=O)CN(C)C(=O)CN(C)C(=O)CN(C)C(=O)CN(C)C(=O)CN(C)C(=O)CN(C)C(=O)CN(C)C(=O)CN(C)C(=O)CN(C)C(=O)CC[C@H](NC(=O)CC[C@H](NC(=O)CC[C@H](NC(=O)CCCCCCCCCCCCCCCCC(=O)O)C(=O)O)C(=O)O)C(=O)O)CC1)C(=O)N(C)[C@@H](CCCNC(=N)N)C(=O)N(C)[C@@H](C)C(=O)N[C@@H](CCCNC(=N)N)C(=O)NCC(N)=O [Compound 53, C18DA-gGlu3-Sar15-AEPipAc-Tyr-Phe-NMeLeu-Nle-NMeArg-NMeAla-Arg-Gly-NH2] (HELM PEPTIDE1{[O=C(O)CCCCCCCCCCCCCCCCC(=O)[*:2]].[gGlu].[gGlu].[gGlu].[Sar].[Sar].[Sar].[Sar].[Sar].[Sar].[Sar].[Sar].[Sar].[Sar].[Sar].[Sar].[Sar].[Sar].[Sar].[O=C(CN1CCN(CCN[*:1])CC1)[*:2]].Y.F.[meL].[Nle].[meR].[meA].R.G.[am]}$$$$V2.0) | 1300 nM | 4 nM | 24.9 nM
3 | CCCC[C@H](NC(=O)[C@H](CC(C)C)N(C)C(=O)[C@H](Cc1ccccc1)NC(=O)[C@H](Cc1ccc(O)cc1)NC(=O)CN1CCN(CCNC(=O)CN(C)C(=O)CN(C)C(=O)CN(C)C(=O)CN(C)C(=O)CN(C)C(=O)CN(C)C(=O)CN(C)C(=O)CN(C)C(=O)CN(C)C(=O)CN(C)C(=O)CN(C)C(=O)CN(C)C(=O)CN(C)C(=O)CN(C)C(=O)CN(C)C(=O)CC[C@H](NC(=O)CC[C@H](NC(=O)CC[C@H](NC(=O)CCCCCCCCCCCCCCCCC(=O)O)C(=O)O)C(=O)O)C(=O)O)CC1)C(=O)N(C)[C@@H](CCCNC(=N)N)C(=O)N1CCC[C@H]1C(=O)N[C@@H](CCCNC(=N)N)C(=O)NCC(N)=O [Compound 52, C18DA-gGlu3-Sar15-AEPipAc-Tyr-Phe-NMeLeu-Nle-NMeArg-Pro-Arg-Gly-NH2] (HELM PEPTIDE1{[O=C(O)CCCCCCCCCCCCCCCCC(=O)[*:2]].[gGlu].[gGlu].[gGlu].[Sar].[Sar].[Sar].[Sar].[Sar].[Sar].[Sar].[Sar].[Sar].[Sar].[Sar].[Sar].[Sar].[Sar].[Sar].[O=C(CN1CCN(CCN[*:1])CC1)[*:2]].Y.F.[meL].[Nle].[meR].P.R.G.[am]}$$$$V2.0) | 200 nM | 1.4 nM | 6.4 nM
4 | CCCC[C@H](NC(=O)[C@H](CC(C)C)N(C)C(=O)[C@H](Cc1ccccc1)NC(=O)[C@H](Cc1ccc(O)cc1)NC(=O)CN1CCN(CCNC(=O)CN(C)C(=O)CN(C)C(=O)CN(C)C(=O)CN(C)C(=O)CN(C)C(=O)CN(C)C(=O)CN(C)C(=O)CN(C)C(=O)CN(C)C(=O)CN(C)C(=O)CN(C)C(=O)CN(C)C(=O)CN(C)C(=O)CN(C)C(=O)CN(C)C(=O)CC[C@H](NC(=O)CC[C@H](NC(=O)CC[C@H](NC(=O)CCCCCCCCCCCCCCCCC(=O)O)C(=O)O)C(=O)O)C(=O)O)CC1)C(=O)N[C@@H](Cc1ccccn1)C(=O)N(C)[C@@H](C)C(=O)N[C@@H](CCCNC(=N)N)C(=O)NCC(N)=O [Compound 48, C18DA-gGlu3-Sar15-AEPipAc-Tyr-Phe-NMeLeu-Nle-2Pal-NMeAla-Arg-Gly-NH2] ({C18 diacid-γGlu-γGlu-γGlu}-[Sar][Sar][Sar][Sar][Sar][Sar][Sar][Sar][Sar][Sar][Sar][Sar][Sar][Sar][Sar][Pipz(1-CH2CO,4-CH2CH2NH)]YF[NMeL][Nle][2Pal][NMeA]RG-NH2) | > 1000 nM | > 1000 nM | > 1000 nM
5 | CCCC[C@H](NC(=O)[C@H](CC(C)C)N(C)C(=O)[C@H](Cc1ccccc1)NC(=O)[C@H](Cc1ccc(O)cc1)NC(=O)CN1CCN(CCNC(=O)CN(C)C(=O)CN(C)C(=O)CN(C)C(=O)CN(C)C(=O)CN(C)C(=O)CN(C)C(=O)CN(C)C(=O)CN(C)C(=O)CN(C)C(=O)CN(C)C(=O)CN(C)C(=O)CN(C)C(=O)CN(C)C(=O)CN(C)C(=O)CN(C)C(=O)CC[C@H](NC(=O)CC[C@H](NC(=O)CC[C@H](NC(=O)CCCCCCCCCCCCCCCCCCC(=O)O)C(=O)O)C(=O)O)C(=O)O)CC1)C(=O)N[C@@H](CCCN)C(=O)N(C)[C@@H](C)C(=O)N[C@@H](CCCNC(=N)N)C(=O)NCC(N)=O [Compound 34, C20DA-gGlu3-Sar15-AEPipAc-Tyr-Phe-NMeLeu-Nle-Orn-NMeAla-Arg-Gly-NH2] (HELM PEPTIDE1{[O=C(O)CCCCCCCCCCCCCCCCCCC(=O)[*:2]].[gGlu].[gGlu].[gGlu].[Sar].[Sar].[Sar].[Sar].[Sar].[Sar].[Sar].[Sar].[Sar].[Sar].[Sar].[Sar].[Sar].[Sar].[Sar].[O=C(CN1CCN(CCN[*:1])CC1)[*:2]].Y.F.[meL].[Nle].[Orn].[meA].R.G.[am]}$$$$V2.0) | > 1000 nM | 9 nM | 24.6 nM
6 | CCCC[C@H](NC(=O)[C@H](CC(C)C)N(C)C(=O)[C@H](Cc1ccccc1)NC(=O)[C@H](Cc1ccc(O)cc1)NC(=O)CN1CCN(CCNC(=O)CN(C)C(=O)CN(C)C(=O)CN(C)C(=O)CN(C)C(=O)CN(C)C(=O)CN(C)C(=O)CN(C)C(=O)CN(C)C(=O)CN(C)C(=O)CC[C@H](NC(=O)CC[C@H](NC(=O)CC[C@H](NC(=O)CCCCCCCCCCCCCCCCCCC(=O)O)C(=O)O)C(=O)O)C(=O)O)CC1)C(=O)N[C@@H](CCN)C(=O)N1CCC[C@H]1C(=O)N[C@@H](CCCNC(=N)N)C(=O)NCC(N)=O [Compound 60, C20DA-gGlu3-Sar9-AEPipAc-Tyr-Phe-NMeLeu-Nle-Dbu-Pro-Arg-Gly-NH2] (HELM PEPTIDE1{[O=C(O)CCCCCCCCCCCCCCCCCCC(=O)[*:2]].[gGlu].[gGlu].[gGlu].[Sar].[Sar].[Sar].[Sar].[Sar].[Sar].[Sar].[Sar].[Sar].[O=C(CN1CCN(CCN[*:1])CC1)[*:2]].Y.F.[meL].[Nle].[Dab].P.R.G.[am]}$$$$V2.0) | 540 nM | 4 nM | 13.9 nM
7 | CCCC[C@H](NC(=O)[C@H](CC(C)C)N(C)C(=O)[C@H](Cc1ccccc1)NC(=O)[C@H](Cc1ccc(O)cc1)NC(=O)CN1CCN(CCNC(=O)CN(C)C(=O)CN(C)C(=O)CN(C)C(=O)CN(C)C(=O)CN(C)C(=O)CN(C)C(=O)CN(C)C(=O)CN(C)C(=O)CN(C)C(=O)CN(C)C(=O)CN(C)C(=O)CN(C)C(=O)CN(C)C(=O)CN(C)C(=O)CN(C)C(=O)CC[C@H](NC(=O)CC[C@H](NC(=O)CC[C@H](NC(=O)CC[C@H](NC(=O)CCCCCCCCCCCCCCCCCCC(=O)O)C(=O)O)C(=O)O)C(=O)O)C(=O)O)CC1)C(=O)N[C@@H](CCN)C(=O)N1CCC[C@H]1C(=O)N[C@@H](CCCNC(=N)N)C(=O)NCC(N)=O [Compound 4, C20DA-gGlu4-Sar15-AEPipAc-Tyr-Phe-NMeLeu-Nle-Dbu-Pro-Arg-Gly-NH2] (HELM PEPTIDE1{[O=C(O)CCCCCCCCCCCCCCCCCCC(=O)[*:2]].[gGlu].[gGlu].[gGlu].[gGlu].[Sar].[Sar].[Sar].[Sar].[Sar].[Sar].[Sar].[Sar].[Sar].[Sar].[Sar].[Sar].[Sar].[Sar].[Sar].[O=C(CN1CCN(CCN[*:1])CC1)[*:2]].Y.F.[meL].[Nle].[Dab].P.R.G.[am]}$$$$V2.0) | 770 nM | 2 nM | 5.8 nM
